Test results: patent US20240226175A1, “THERAPEUTIC AGENT USING GENOME-EDITED PLURIPOTENT STEM CELL” (KEIO UNIVERSITY, priority 2020, published 2024)

Tests used:
Type in all cases: cell-based, human
glioma cell line U87 = assay: Antitumor effect in co-culture with 5-FC (CCK-8), U87; conditions: without TSC1/TSC2
Procedure: (§1) Glioma cell line U87 (1×10^4 cells) or glioma stem cell line hG008 (1×10^4 cells) and TSC1 or TSC2 (5×10^3 cells) were co-cultured for 1 day using a low adhesive 96-well culture plate (Prime Surface 96V, manufactured by Sumitomo Bakelite Co., Ltd.), then 5-FC (2 μg/ml) was added, and cell deaths were assessed using a cell proliferation/cytotoxicity assay kit Cell Counting Kit-8 (CCK-8) 5 days later.

[1] = system: glioma stem cell line hG008; assay: Antitumor effect in co-culture with 5-FC (CCK-8), hG008; conditions: without TSC1/TSC2
Procedure: as §1

(yCD-NSCs) = assay: Response of yCD-NSCs to 5-FU; conditions: ACTB (yCD-NSCs)

response to 5-FU ((yCD-NSCs))	SMILES	tumor cell death with 5-FC alone (glioma cell line U87)	tumor cell death with 5-FC alone [1]
	Nc1nc(=O)[nH]cc1F [5-FC, 5-fluorocytosine]	no particular tumor cell death was observed	no particular tumor cell death was observed
not favorable	O=c1[nH]cc(F)c(=O)[nH]1 [5-FU, 5-fluorouracil]		
